Paper PMC11783427, “Enhanced dynamic coupling in a nuclear receptor underlies ligand activity” (The Journal of Biological Chemistry, 2024)
Where two headings read alike, the source gives them in different places.

Legend:
FXR [1] = details: cited from earlier work
FXR [2] = biological target: T1, FXR (Homo sapiens, UniProt Q96RI1); test: Dual-luciferase reporter assay of FXR transcription (IR-1-CON-luc and PLTP-luc) in HeLa cells; type: cell-based
T1 construct: Luciferase with FL-FXR and Coregulators; expressed in transfected cells; host or cells: HeLa cells
T1 sequence (Q96RI1 1-476 isoform Q96RI1-1): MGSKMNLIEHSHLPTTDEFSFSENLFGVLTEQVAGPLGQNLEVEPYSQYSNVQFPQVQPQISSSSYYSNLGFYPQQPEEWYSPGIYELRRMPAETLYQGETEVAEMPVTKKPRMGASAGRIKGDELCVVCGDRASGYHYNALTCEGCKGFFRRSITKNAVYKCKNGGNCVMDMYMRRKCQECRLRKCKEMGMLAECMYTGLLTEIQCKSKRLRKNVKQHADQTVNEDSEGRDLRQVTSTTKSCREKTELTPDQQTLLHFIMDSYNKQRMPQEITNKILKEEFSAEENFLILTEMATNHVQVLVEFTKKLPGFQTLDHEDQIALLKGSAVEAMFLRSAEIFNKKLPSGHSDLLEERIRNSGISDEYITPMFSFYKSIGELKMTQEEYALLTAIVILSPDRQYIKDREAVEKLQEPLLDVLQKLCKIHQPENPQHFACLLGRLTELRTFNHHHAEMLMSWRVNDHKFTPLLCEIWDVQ
T1 sequence (P19793 1-462 partner): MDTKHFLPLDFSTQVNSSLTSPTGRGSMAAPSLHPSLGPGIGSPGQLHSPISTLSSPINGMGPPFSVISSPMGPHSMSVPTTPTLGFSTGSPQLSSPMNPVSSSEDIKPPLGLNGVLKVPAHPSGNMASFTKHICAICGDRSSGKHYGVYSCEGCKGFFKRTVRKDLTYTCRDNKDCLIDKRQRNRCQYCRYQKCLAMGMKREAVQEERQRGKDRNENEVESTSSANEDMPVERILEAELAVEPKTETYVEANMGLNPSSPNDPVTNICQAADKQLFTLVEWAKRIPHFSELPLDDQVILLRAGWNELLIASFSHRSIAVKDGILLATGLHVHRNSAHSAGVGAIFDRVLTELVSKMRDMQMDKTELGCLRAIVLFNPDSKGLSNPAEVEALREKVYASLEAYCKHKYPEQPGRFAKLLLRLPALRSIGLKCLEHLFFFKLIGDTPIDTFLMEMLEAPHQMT
Description: HeLa cells were obtained from American Type Culture Collection, and the cells were grown in culture in minimum essential medium alpha (Thermo Fisher Scientific) supplemented with 10% FBS and 1% L-glutamine at 37 °C with humidified atmosphere at 5% CO2.
Cells were seeded 10,000 cells/well in a 96-well, clear flat, bottom cell culture plate. Cotransfection was performed with equal amount of 5 ng of each expression plasmids pcDNA3.1-FXR and pcDNA3.1-RXR, along with 50 ng of the pGL4.31-derived plasmids containing the FXRE and 1 ng of renilla luciferase (pRL-CMV). […]
At 24 h after transfection, cells were stimulated with DMSO (final concentration of 0.71%) or test ligands at final concentrations 10 μM or 100 μM, as appropriate. After another 24 h incubation, Firefly luciferase activity and Renilla luciferase activity were measured using the Dual-Glo kit (Promega) using a SpectraMax iD5 plate reader. […]
Data for luciferase assays are presented as the mean ± standard SD of at least three independent replicates. p values were calculated using two-way ANOVA with Dunnett’s multiple comparisons test to access the differences between specific pairs of means. For coregulator mean comparisons, p values were calculated using one-way ANOVA with Sidaks’s multiple comparisons. […]

Compound: CC[C@H]1[C@@H](O)[C@@H]2[C@H](CC[C@]3(C)[C@@H]([C@H](C)CCC(=O)O)CC[C@@H]23)[C@@]2(C)CC[C@@H](O)C[C@@H]12 [OCA, obeticholic acid]
- luciferase activity (efficacy of FXR transcriptional activation) (FXR [2]; 10 μM ligand, both IR-1-CON-luc and PLTP-luc, compared among OCA, CDCA, LCA): highest efficacy

Compound: C[C@H](CCC(=O)O)[C@H]1CC[C@H]2[C@@H]3CC[C@@H]4C[C@H](O)CC[C@]4(C)[C@H]3CC[C@]12C [LCA, lithocholic acid]
- luciferase activity (efficacy of FXR transcriptional activation) (FXR [2]; 100 μM ligand, compared with 10 μM OCA, Fig. S1A): falls short of 10 μM OCA levels
